This note sets out measurements from patent US9079913B2, “Spiro-oxindole MDM2 antagonists” (The Regents of the University of Michigan, priority 2009, dated 2015).

Experiment [1] has as its system Isogenic HCT-116 colon cancer cell lines. Put plainly: cells. The format is cell-based.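 Note: cells grown in 96-well plates in McCoy's 5A medium with 10% FBS, exposed to compound for 4 days.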
Protocol: Cells were seeded in 96-well flat bottom cell culture plates at a density of 2−3×10^3 cells/well with compounds and incubated for 4 days.
The target in experiment [2] is recombinant human His-tagged MDM2 protein (residues 1-118) (Homo sapiens (Human), UniProt Q00987). Put plainly: Fluorescence-polarization MDM2 binding assay.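 Note: fluorescence polarization read after three hours of incubation in potassium phosphate buffer containing bovine gamma globulin and Triton X-100.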
Chain of recombinant human His-tagged MDM2 protein (residues 1-118) (Q00987 1-118): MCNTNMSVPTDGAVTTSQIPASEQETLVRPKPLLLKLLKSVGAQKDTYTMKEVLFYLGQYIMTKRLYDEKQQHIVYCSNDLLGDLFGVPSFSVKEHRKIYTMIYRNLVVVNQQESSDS
Experiment [3] concerns cancer cell lines with wild-type p53 / mutated or deleted p53 (ATCC). Put plainly: Cell growth assay (WST-8), other cancer cell lines. It counts as cell-based.
Setting [4] is: Homo sapiens, HCT-116, read-out: Inhibition of cell growth IC50, HCT116 p53 KO, Table 19B, HCT116 p53 KO.
Where [5] appears, read: Homo sapiens, HCT-116, read-out: Inhibition of cell growth IC50, HCT116 p53 WT, Table 19B, HCT116 p53 WT.
The mark [6] stands for this setting: Table 19B, read-out: Binding affinities to MDM2 protein as determined by FP based assay IC50.
The mark [7] stands for this setting: Homo sapiens, LNCaP, Table 19B, LNCaP cells, read-out: Inhibition of cell growth IC50, LNCaP.
Setting [8] is: Homo sapiens, PC-3, Table 19B, PC3 cells, read-out: Inhibition of cell growth IC50, PC3.
Setting [9] is: Homo sapiens, HCT-116, read-out: HCT-116 (p53-/-) IC50, Table 19A, HCT-116 p53-/-, cell growth.
[10] abbreviates: Homo sapiens, HCT-116, read-out: HCT-116 (p53 wild-type) IC50, Table 19A, HCT-116 p53 wild-type, cell growth.
Where [11] appears, read: Table 19A, FP binding assay, read-out: MDM2 IC50.
The mark [12] stands for this setting: Homo sapiens, LNCaP, Table 19A, LNCAP cells, p53 wild-type, cell growth, read-out: LNCAP (p53 wild-type) IC50.
Setting [13] is: Homo sapiens, PC-3, Table 19A, PC-3 cells, deleted p53, cell growth, read-out: PC-3 (deleted p53) IC50.
Setting [14] is: Homo sapiens, SJSA-1, Table 19A, SJSA-1 cells, p53 wild-type, cell growth, read-out: SJSA-1 (p53 wild-type) IC50.

Where two headings read alike, the source gives them in different places.

For the molecule `CC(C)(C)C[C@H]1N[C@@H](C(=O)NCCC2CCC(O)C2)[C@H](c2cccc(Cl)c2F)[C@@]12C(=O)Nc1cc(Cl)ccc12` (stereo partly drawn) [MI-755], the IC50 was more than 10 µM in experiment [1] (setting [4]); less than 3 µM in experiment [1] (setting [5]); less than 1 µM in experiment [2] (setting [6]); less than 3 µM in experiment [3] (setting [7]); more than 10 µM in experiment [3] (setting [8]).
Take `CC(C)(C)C[C@H]1N[C@@H](C(=O)NCC[C@](C)(O)CO)[C@H](c2cccc(Cl)c2F)[C@@]12C(=O)Nc1cc(Cl)ccc12` [MI-789]: the IC50 is more than 10 µM in experiment [1] (setting [9]); less than 3 µM in experiment [1] (setting [10]); less than 3 µM in experiment [2] (setting [11]); less than 3 µM in experiment [3] (setting [12]); more than 10 µM in experiment [3] (setting [13]); less than 3 µM in experiment [3] (setting [14]).
With `CCCCC(C)(C)C[C@H]1N(C)[C@@H](C(=O)NCC[C@H](O)CO)[C@H](c2cccc(Cl)c2)[C@@]12C(=O)Nc1cc(Cl)c(F)cc12` [MI-728], the IC50 is 16.9 ± 5.6 µM in experiment [1] (setting [4]); 4 ± 0.8 µM in experiment [1] (setting [5]); less than 5 µM in experiment [2] (setting [6]); 2.1 ± 0.1 µM in experiment [3] (setting [7]); 7.1 ± 2 µM in experiment [3] (setting [8]).
Take `O=C(NCC[C@H](O)CO)[C@@H]1N[C@H](CC2CCCCC2)[C@]2(C(=O)Nc3cc(Cl)c(F)cc32)[C@H]1c1cccc(Cl)c1` [MI-716C]: the IC50 in experiment [1] (read-out: Inhibition of cell growth IC50, HCT116 p53 KO, Table 19B, HCT116 p53 KO) is 12 ± 3.4 µM; in experiment [1] (read-out: Inhibition of cell growth IC50, HCT116 p53 WT, Table 19B, HCT116 p53 WT) it was 0.7 ± 0.2 µM; in experiment [2] (setting [6]) it was less than 1 µM; in experiment [3] (Table 19B, LNCaP cells, read-out: Inhibition of cell growth IC50, LNCaP), 0.8 ± 0.1 µM; in experiment [3] (Table 19B, PC3 cells, read-out: Inhibition of cell growth IC50, PC3) it was 8 ± 2 µM.
As to `CC(C)(C)C[C@H]1N[C@@H](C(=O)NCC2CC(O)C(O)C2)[C@H](c2cccc(Cl)c2)[C@@]12C(=O)Nc1cc(Cl)c(F)cc12` (stereo partly drawn) [MI-519-37], the IC50 in experiment [1] (read-out: HCT-116 (p53-/-) IC50, Table 19A, HCT-116 p53-/-, cell growth) was 14.9 ± 2 µM; in experiment [1] (read-out: HCT-116 (p53 wild-type) IC50, Table 19A, HCT-116 p53 wild-type, cell growth), 1 ± 0.5 µM; in experiment [2] (setting [11]) it was less than 1 µM; in experiment [3] (Table 19A, LNCAP cells, p53 wild-type, cell growth, read-out: LNCAP (p53 wild-type) IC50), 0.6 ± 0.1 µM; in experiment [3] (Table 19A, PC-3 cells, deleted p53, cell growth, read-out: PC-3 (deleted p53) IC50), 14 ± 2.2 µM.
Consider `O=C(NCC[C@H](O)CO)[C@@H]1N[C@H](CCc2ccccc2)[C@]2(C(=O)Nc3cc(Cl)c(F)cc32)[C@H]1c1cccc(Cl)c1` [MI-701], for which the IC50 was 33.8 ± 14.6 µM in experiment [1] (setting [4]); 16.7 ± 13 µM in experiment [1] (setting [5]); more than 10 µM in experiment [2] (setting [6]); 3 ± 3.5 µM in experiment [3] (setting [7]); 48.9 ± 22.4 µM in experiment [3] (setting [8]).
For `CC(C)(C)C[C@H]1N[C@@H](C(=O)NC2CCC(NS(=O)(=O)C(F)(F)F)CC2)[C@H](c2cccc(Cl)c2)[C@@]12C(=O)Nc1cc(Cl)c(F)cc12` (stereo partly drawn) [MI-777], the IC50 in experiment [1] (setting [9]) was 7.8 µM; in experiment [1] (setting [10]) it was 8.9 µM; in experiment [2] (setting [11]), less than 5 µM; in experiment [3] (setting [12]) it was 6.6 µM; in experiment [3] (setting [14]) it was 9.2 µM.
On to `CCC[C@H]1N[C@@H](C(=O)NCC[C@H](O)CO)[C@H](c2cccc(Cl)c2)[C@@]12C(=O)Nc1cc(Cl)c(F)cc12` [MI-702], for which the IC50 in experiment [1] (setting [4]) was 12.7 ± 2.3 µM; in experiment [1] (setting [5]), 5.8 ± 1.7 µM; in experiment [2] (setting [6]) it was more than 1 µM; in experiment [3] (setting [7]), 1.9 ± 0.3 µM; in experiment [3] (setting [8]), 14.3 ± 2.9 µM.
In the same order, the values of `CC(C)(C)C[C@H]1N[C@@H](C(=O)N2CCN(C(=O)C3CC3)CC2)[C@H](c2cccc(Cl)c2)[C@@]12C(=O)Nc1cc(Cl)c(F)cc12` [MI-743] are 5.7 ± 3.4 µM, 2.4 ± 0.2 µM, more than 1 µM, 2.5 ± 0.5 µM and 7.7 ± 3.1 µM.
The like results for `CC(C)CC(C)(C)C[C@H]1N(C)[C@@H](C(=O)NCC[C@H](O)CO)[C@H](c2cccc(Cl)c2F)[C@@]12C(=O)Nc1cc(F)c(F)cc12` [MI-734] were, in that order, 8.2 ± 3.5 µM, 5.5 ± 2.1 µM, more than 5 µM, 3.7 ± 1.1 µM and 7.4 ± 1.8 µM.
Regarding `CC(C)C[C@H](N)C(=O)OC1CCC(NC(=O)[C@@H]2N[C@H](CC(C)(C)C)[C@]3(C(=O)Nc4cc(Cl)ccc43)[C@H]2c2cccc(Cl)c2F)CC1` (stereo partly drawn) [MI-903], the IC50 in experiment [1] (setting [9]) is 12.1 µM; in experiment [1] (setting [10]), less than 3 µM; in experiment [2] (setting [11]) it was less than 3 µM; in experiment [3] (setting [12]), less than 3 µM; in experiment [3] (setting [13]), 3.5 µM; in experiment [3] (setting [14]), less than 3 µM.
